Source: ChEMBL document CHEMBL1201862, “PubChem BioAssay data set” (2004)
The source made the active and inactive calls.

Columns and labels:
[1] = non-specific 3'UTR reporter inhibition in Clone20-Shn3RL – cell-based, Renilla luciferase, cherry-picked, counter-screen for Shn3 inhibitor project, dose response (AID 624133); format: functional
[2] = Shn3 3'UTR reporter signal decrease – cell-based, Clone20 osteoblasts, firefly luciferase, cherry-pick, set 2, Schnurri-3 inhibitor project, dose response (AID 720490); format: functional;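 also: actives lower the luminescence signal as inhibitors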
[3] = reduction of Shn3 3'UTR-driven luciferase in osteoblasts – cell-based, Clone20 osteoblasts, firefly luciferase, cherry-picked, dose response (AID 624132); format: functional;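 also: firefly luciferase luminescence from reporter carrying the Shn3 3'UTR in osteoblasts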
[4] = molecular target: T1, Oxysterols receptor LXR-beta (Homo sapiens, UniProt P55055); format: functional, cell-based;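 also: Cell-based luminescence dose-response assay of agonist activity at LXR, run as a confirmatory counterscreen to a daf-12 agonist screen; agonist potency from rising luciferase signal of a Gal4-LXR reporter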
T1 sequence (P55055 whole entry): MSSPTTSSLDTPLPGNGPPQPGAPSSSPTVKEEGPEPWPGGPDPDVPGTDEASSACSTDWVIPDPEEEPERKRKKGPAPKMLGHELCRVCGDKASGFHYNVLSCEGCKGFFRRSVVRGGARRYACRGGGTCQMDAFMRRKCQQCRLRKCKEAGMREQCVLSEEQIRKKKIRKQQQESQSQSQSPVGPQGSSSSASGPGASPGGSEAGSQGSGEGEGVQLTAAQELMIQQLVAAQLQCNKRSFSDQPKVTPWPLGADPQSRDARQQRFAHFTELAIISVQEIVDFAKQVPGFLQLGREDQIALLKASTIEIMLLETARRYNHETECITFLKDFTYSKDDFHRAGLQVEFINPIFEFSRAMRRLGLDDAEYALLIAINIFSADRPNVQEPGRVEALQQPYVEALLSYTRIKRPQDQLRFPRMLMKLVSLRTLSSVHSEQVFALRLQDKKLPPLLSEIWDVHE

[5] = Luminescence Cell-Based Dose Response HTS to Identify Activators of Luciferase Translation or Activity in H4 […] Cells. [Related pubchem assays: 1829 (Project Summary), 1814 (Primary HTS)]; format: functional
cells [6] = assay: cells
[7] = Luminescence-based cell-based high throughput dose response assay to identify activators of the DAF-12 from the parasite S. stercoralis (ssDAF-12).; format: functional
[8] = molecular target: T1, Oxysterols receptor LXR-beta; assay: LXR agonists, Gal4 luciferase reporter, dose response, counter-screen for ssDAF-12 agonist project, cell-based, luminescence, HEK293, S. stercoralis campaign (AID 720737); format: functional; conditions: read-out: IC50 (the source's name)
[9] = loss of viability in HepG2 cells – cell-based, CellTiter-Glo, cherry-picked, cytotoxicity control for Shn3 inhibitor project, dose response (AID 624134); format: functional
HEK293 = assay: EBV LMP1 TES2 canonical NF-kB signalling blockers – cell-based, HEK293, luciferase, cherry-pick, dose response (AID 588343); format: functional; conditions: Homo sapiens
cells [10] = conditions: HEK293
[11] = molecular target: Glutathione-S-transferase (Schistosoma japonicum, UniProt Q26513); assay: GST-antibody interaction or FRET quenching – biochemical, TR-FRET, artefact control for Vif-APOBEC3G degradation inhibitor project, dose response (AID 1117362); format: functional
[12] = molecular target: Glucose-6-phosphate 1-dehydrogenase (Homo sapiens, UniProt P11413); assay: inhibition of Homo sapiens G6PD, dose series – biochemical, fluorescence, selectivity assay for P. falciparum G6PD inhibitor project, dose response (AID 504792); format: functional
[13] = viability loss in THP-1 monocytes – THP-1 cells, cytotoxicity control for Vif-APOBEC3G degradation inhibitor project, dose response (AID 1117359); format: functional; conditions: THP-1
[14] = HIV-1 AD8 envelope cell-cell fusion blockers – cherry-pick, dose response (AID 652062); format: functional, cell-based;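 also: luciferase signal from cell-cell fusion driven by HIV-1 clade B AD8 Env; potency is for inhibitors of fusion seen as a drop in luminescence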
[15] = blockers of HIV-1 ZM109 envelope-driven cell-cell fusion – HeLa effector, CEM target cells, luciferase, cherry-pick, dose response (AID 652058); format: functional, cell-based;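 also: luciferase signal from HIV-1 Env mediated cell-cell fusion of effector and target cells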
[16] = off-target signal loss in HeLa-CEM21 co-culture – HeLa F-luc CTL cells, cherry-picked, counter-screen for HIV-1 Env fusion inhibitor project, dose response (AID 652040); format: functional, cell-based;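 also: potency for signal decrease marking cytotoxic or nonspecific inhibition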
[17] = blockers of HIV-1 envelope-mediated cell-cell fusion – cherry-pick, dose response (AID 652057); format: functional, cell-based
[18] = viability loss in CEM21 cells – cell-based, CellTiter-Glo luminescence, cherry-picked, cytotoxicity control for viral fusion inhibitor project, dose response (AID 652042); format: functional;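 also: potency for signal decrease meaning cytotoxicity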
[19] = growth inhibition of yeast DHODH-expressing 3D7 parasites – SYBR Green, dry powder samples, dose response (AID 1159570); format: functional, cell-based;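 also: parasite growth measured after 72 hours of compound exposure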
Paired box protein Pax-8 = Paired box protein Pax-8 (Homo sapiens, UniProt Q06710); assay: PAX8 transcriptional activity inhibition in RMG-I – RMG-I cells, luciferase, cherry-pick, dose response (AID 687027); format: functional, cell-based;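 also: luciferase reporter driven by Pax8 target thyroperoxidase promoter measured by SteadyGlo luminescence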
[20] = Dd2 malaria parasite growth inhibition potency – SYBR Green, dry powder samples, dose response (AID 1159566); format: functional, cell-based;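 also: potency for growth inhibition with lower SYBR green DNA signal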
[21] = COV362 cell viability loss – plate reader, dry powder, SA12, cytotoxicity control for PAX8 inhibitor project, dose response (AID 743144); format: functional, cell-based
[22] = inhibitors acting on PAX2 in cells – cell-based, plate reader, dry powder samples, selectivity assay for PAX8 inhibitor project, dose response (AID 743048); format: functional;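 also: HEK293 cells carrying a WT1 promoter luciferase reporter driven by expressed Pax2; potency is for inhibition of Pax2 driven reporter signal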
[23] = growth inhibition of PfATP4-mutant resistant parasites – NITD609-resistant line, SYBR Green, dry powder, dose response (AID 1159571); format: functional, cell-based;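 also: parasites synchronized at ring stage by sorbitol before testing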
[24] = P. falciparum Dd2 growth inhibitors, dose response, SYBR Green, cherry-picked samples (AID 1159567); format: functional, cell-based
[25] = OVCAR8 cell viability loss – plate reader, dry powder samples, PAX8 project, dose response (AID 743197); format: functional, cell-based; conditions: OVCAR-8
[26] = PAX8-dependent cell viability loss – plate reader, dry powder, dose response (AID 743049); format: functional, cell-based
[27] = toxicity to human HepG2 hepatoma cells – cell-based, plate reader, dry powder samples, cytotoxicity control, dose response (AID 1159569); format: functional;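 also: inhibitor potency with signal falling toward the positive control level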
[28] = PAX5 cellular inhibition readout – cell-based, plate reader, dry powder samples, selectivity assay for PAX8 inhibitor project, dose response (AID 743047); format: functional;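 also: HEK293 cells carrying a Pax5 driven CD19 promoter luciferase reporter; potency of inhibitors that lower reporter luminescence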
[29] = OVCAR-3 cell viability loss – plate reader, dry powder samples, PAX8 inhibitor project, dose response (AID 743044); format: functional, cell-based
[30] = toxicity toward immortalized ovarian surface epithelium – cell-based, plate reader, dry powder samples, cytotoxicity control for PAX8 inhibitor project, dose response (AID 743045); format: functional
[31] = IGROV1 cell killing – plate reader, dry powder samples, PAX8 inhibitor project, dose response (AID 743043); format: functional, cell-based; conditions: IGROV-1
[32] = A2780 cell killing – plate reader, dry powder samples, cytotoxicity control, dose response (AID 743046); format: functional, cell-based
[33] = Late stage assay provider results from the probe development effort to identify selective inhibitors of heat shock protein 90 (HSP90): Absorbance-based cell proliferation assay in MCF7 cells.; format: functional
[34] = Late stage assay provider results from the probe development effort to identify selective inhibitors of heat shock protein 90 (HSP90): Absorbance-based cell proliferation assay in SKBR3 cells.; format: functional; conditions: SK-BR-3
[35] = SNU-C1 cell viability reduction, dose response, CellTiter-Glo luminescence (AID 1117323); format: functional, cell-based
[36] = HCT116 cell viability decrease, GSK3B pretreatment – CellTiter-Glo, IC50, dose response (AID 1117339); format: functional; conditions: HCT-116
[37] = cytotoxicity toward Colo320 cells – cell-based, CellTiter-Glo luminescence, IC50, dose response (AID 1117334); format: functional; conditions: COLO 320
[38] = cytotoxicity toward HCT116 cells – cell-based, CellTiter-Glo luminescence, IC50, dose response (AID 1117332); format: functional; conditions: HCT-116
[39] = RKO cell viability reduction, dose response, CellTiter-Glo luminescence (AID 1117322); format: functional
[40] = Reduced DLD-1 viability, concentration-response, CellTiter-Glo luminescence (AID 1117352); format: functional
[41] = cytotoxicity toward HT-29 cells – cell-based, CellTiter-Glo luminescence, IC50, dose response (AID 1117330); format: functional
[42] = CellTiter-Glo luminescence survival assay, SW480 colon tumor line, concentration-response curve, half-maximal inhibitory concentration (AID 1117338); format: functional

Chain of Paired box protein Pax-8 (Q06710 whole entry): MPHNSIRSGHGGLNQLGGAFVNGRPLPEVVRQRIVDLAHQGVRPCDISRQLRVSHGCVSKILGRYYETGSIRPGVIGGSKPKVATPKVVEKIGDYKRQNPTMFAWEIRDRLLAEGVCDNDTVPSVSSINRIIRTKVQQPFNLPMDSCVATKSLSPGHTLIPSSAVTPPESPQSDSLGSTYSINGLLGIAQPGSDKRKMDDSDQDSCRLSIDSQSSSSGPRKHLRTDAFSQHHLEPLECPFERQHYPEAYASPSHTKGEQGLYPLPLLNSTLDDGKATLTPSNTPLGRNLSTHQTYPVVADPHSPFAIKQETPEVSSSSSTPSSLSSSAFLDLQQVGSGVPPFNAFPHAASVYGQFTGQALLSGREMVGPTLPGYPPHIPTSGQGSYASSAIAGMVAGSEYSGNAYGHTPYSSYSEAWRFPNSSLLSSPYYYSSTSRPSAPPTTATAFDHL
Chain of Glutathione-S-transferase (Q26513 whole entry): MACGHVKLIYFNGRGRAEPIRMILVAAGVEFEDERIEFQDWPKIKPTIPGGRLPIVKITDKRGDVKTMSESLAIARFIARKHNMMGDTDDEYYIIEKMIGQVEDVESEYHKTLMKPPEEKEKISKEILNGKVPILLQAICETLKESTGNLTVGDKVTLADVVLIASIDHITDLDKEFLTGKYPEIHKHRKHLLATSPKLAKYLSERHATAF
Chain of Glucose-6-phosphate 1-dehydrogenase (P11413 whole entry): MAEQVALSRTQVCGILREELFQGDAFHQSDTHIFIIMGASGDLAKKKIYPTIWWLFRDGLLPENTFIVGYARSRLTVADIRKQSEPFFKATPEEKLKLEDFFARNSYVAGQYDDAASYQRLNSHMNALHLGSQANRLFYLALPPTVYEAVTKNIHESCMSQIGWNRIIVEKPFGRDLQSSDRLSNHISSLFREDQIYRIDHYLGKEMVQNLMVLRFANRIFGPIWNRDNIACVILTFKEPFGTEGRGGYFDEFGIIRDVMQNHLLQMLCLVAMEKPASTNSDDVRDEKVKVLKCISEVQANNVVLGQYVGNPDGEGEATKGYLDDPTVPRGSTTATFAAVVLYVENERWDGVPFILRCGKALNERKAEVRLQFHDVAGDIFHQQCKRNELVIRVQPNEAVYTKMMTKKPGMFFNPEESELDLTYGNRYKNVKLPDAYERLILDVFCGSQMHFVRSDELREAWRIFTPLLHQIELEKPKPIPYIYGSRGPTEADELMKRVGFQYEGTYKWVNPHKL

CCOC(=O)C1CCCN(S(=O)(=O)c2ccc(S(=O)(=O)N3CCCC3)cc2)C1 (stereo not drawn)
AC50 [1]: 2.94 µM (active)
AC50 [2]: 2.1 µM (active)
AC50 [3]: 0.821 µM (active)

Cc1occc1C(=O)N=Nc1c(O)n(C)c2ccccc12
EC50 [4]: > 67.5 µM (inactive)
EC50 [5]: 0.526 µM (active)
EC50 (cells [6]): > 67.5 µM (inactive)

COc1ccc(C(=N)NOC(=O)c2cccs2)cc1
IC50 [7]: > 67.6 µM (inactive)
EC50 [8]: > 67.6 µM (inactive)

CCc1ccccc1NC(=O)COC(=O)c1c(C)nsc1NC
AC50 [9]: 64.7 µM (active)
AC50 (HEK293): 133 µM (active)
AC50 [1]: 9.08 µM (active)
AC50 [2]: 2.76 µM (active)
AC50 [3]: 2.48 µM (active)

Cn1nc(-c2ccc(Cl)cc2)c2cc(C(=O)N3CCN(c4ccccc4)CC3)sc21
AC50 (cells [10]): > 52 µM (inactive)

CC(C)(C)NC(=O)NC(=O)COc1ccc(Br)cc1Br
EC50 [4]: > 67.5 µM (inactive)
EC50 (cells [6]): > 67.5 µM (inactive)

Cn1nccc1NC(=O)Nc1ccc(Cl)cc1
IC50 [11]: 93.4 µM (active)

COc1cccc(C=Nc2cc(C(C)C)c(O)cc2C)c1O
IC50 [12]: 33.9 µM (inactive)
CC50 [13]: 27.2 µM (active)

Fc1cccc(Cc2c(-c3ccco3)nc3c4ccccc4ccn23)c1
AC50 [14]: 5.56 µM (active)
AC50 [15]: 1.2 µM (active)
IC50 [7]: > 67.5 µM (inactive)
AC50 [16]: 0.907 µM (active)
AC50 [17]: 1.12 µM (active)
EC50 [8]: > 67.5 µM (inactive)
AC50 [18]: 44 µM (active)

COc1cccc(C#Cc2ccc([C@@H]3[C@@H](C#N)N(C(=O)C4CCCCC4)[C@H]3CO)cc2)c1
AC50 [19]: 1.11 µM (active)
AC50 (Paired box protein Pax-8): 8.61 µM (active)
AC50 [20]: 0.422 µM (active)
AC50 [21]: > 70 µM (inactive)
AC50 [22]: 46.5 µM (active)
AC50 [23]: 1.13 µM (active)
AC50 [24]: 0.865 µM (active)
AC50 [25]: > 70 µM (inactive)
AC50 [26]: 15.9 µM (active)
AC50 [27]: 26.5 µM (active)
AC50 [28]: 5.72 µM (active)

COc1ccc(-c2ccc3c(c2)[C@H]2[C@H](CCN2S(=O)(=O)c2ccc(OC)cc2)[C@H](CO)N3C)cc1
AC50 [29]: 3.15 µM (active)
AC50 (Paired box protein Pax-8): 7.21 µM (active)
AC50 [30]: 6.56 µM (active)
AC50 [31]: 5.8 µM (active)
AC50 [25]: 7.31 µM (active)
AC50 [32]: 1.52 µM (active)

CCCCCCCCOc1ccc(NC(=O)c2coc(=O)c(Br)c2)cc1
IC50 [33]: 12.9 µM (inactive)
IC50 [34]: 13.5 µM (inactive)

O=C(NCc1cccnc1)c1coc(=O)c(Br)c1
IC50 [33]: 3.5 µM (active)
IC50 [34]: 12.8 µM (inactive)

O=C(NC(=O)c1c(F)cccc1F)Nc1ccc(Cl)c(Oc2ncc(C(F)(F)F)cc2Cl)c1 [FLUAZURON]
IC50 [35]: > 20 µM (inactive)
IC50 [36]: 10.6 µM (inactive)
IC50 [37]: > 20 µM (inactive)
IC50 [38]: > 20 µM (inactive)
IC50 [39]: 11.8 µM (inactive)
IC50 [40]: > 20 µM (inactive)
IC50 [41]: > 20 µM (inactive)
IC50 [42]: > 20 µM (inactive)

CC(=O)N(CC(O)CN(C(C)=O)c1c(I)c(C(=O)NCC(O)CO)c(I)c(C(=O)NCC(O)CO)c1I)c1c(I)c(C(=O)NCC(O)CO)c(I)c(C(=O)NCC(O)CO)c1I (stereo not drawn) [IODIXANOL]
IC50 [35]: > 20 µM (inactive)
IC50 [36]: > 20 µM (inactive)
IC50 [37]: > 20 µM (inactive)
IC50 [38]: > 20 µM (inactive)
IC50 [39]: > 20 µM (inactive)
IC50 [40]: > 20 µM (inactive)
IC50 [41]: > 20 µM (inactive)
IC50 [42]: > 20 µM (inactive)
